# Assay results from patent US20040142958A1, “Combination therapy for the treatment of pain” (Neurogen Corporation, priority 2002, published 2004).
# Tests used:
# rats [1] = assay: CFA-induced chronic inflammatory pain, mechanical allodynia (von Frey), tolerance to morphine; assay type: in vivo, rat; conditions: once per day for four days; for withdrawal threshold from a von Frey filament: Treatment Day 4, 1 hour after treatment, ANOVA and Fisher's PLSD
# Source text: A positive allodynic response consists of lifting the affected paw followed immediately by licking or shaking of the paw.
# rats [2] = assay: Carrageenan-induced thermal hyperalgesia, VR1 antagonist and morphine in combination; assay type: in vivo, rat
# Protocol: Briefly, a constant radiant heat source is applied the animals' plantar surface of either hind paw. The time to withdrawal (ie., the amount of time that heat is applied before the animal moves its paw), otherwise described as thermal threshold or latency, determines the animal's hind paw sensitivity to heat.
# Rats received oral administration of 0.1 mg/kg VR1 antagonist ([2-(2,6-dimethyl-morpholin-4-ylmethyl)-7-(3-trifluoromethyl-pyridin-2-yl)-pyrido[3,2-d]pyrimidin-4-yl]-(4-trifluoromethyl-phenyl)-amine (cis)) or vehicle alone in a solution of 2% vitamin E (d-alpha tocopheryl polyethylene glycol 1000 succinate) in distilled water. One hour later, 100 μL of 1% carrageenan was injected in the intraplantar aspect of the left paw. 2 hours after carrageenan injection, the rats were treated subcutaneously with saline or 1 mg/kg of morphine sulfate in saline. One hour after subcutaneous treatment, each rat's thermal withdrawal latency (i.e., the amount of time that heat is applied before the animal moves its paw) was determined. This latency was compared with the latency determined for each rat on the day prior to the experiment (baseline day).
# The data are presented in FIG. 4, expressed as a decrease in paw withdrawal latency (latency on test day—latency on baseline day).
# [3] = oral VR1 antagonist 0.3 mg/kg and subcutaneous morphine sulfate 3 mg/kg
Compound,tolerance to repeated morphine dosing (rats [1]; [3]),withdrawal threshold from a von Frey filament (rats [1]; [3]),"decrease in thermal paw withdrawal latency (carrageenan-induced thermal hyperalgesia) (rats [2]; VR1 antagonist alone, 0.1 mg/kg oral, with s.c. saline, ANOVA, Fisher's PLSD)",decrease in thermal paw withdrawal latency (carrageenan-induced thermal hyperalgesia) (rats [2]; coadministration of 1 mg/kg morphine s.c. with VR1 antagonist 0.1 mg/kg oral),withdrawal threshold from a von Frey filament (rats [1]; oral vehicle and subcutaneous morphine sulfate 3 mg/kg),"decrease in thermal paw withdrawal latency (carrageenan-induced thermal hyperalgesia) (rats [2]; 1 mg/kg morphine s.c. with oral vehicle, 1 hour after subcutaneous treatment, ANOVA, Fisher's PLSD)"
"C[C@@H]1CN(Cc2nc(Nc3ccc(C(F)(F)F)cc3)c3ncc(-c4ncccc4C(F)(F)F)cc3n2)C[C@H](C)O1 [VR1 antagonist, [2-(2,6-dimethyl-morpholin-4-ylmethyl)-7-(3-trifluoromethyl-pyridin-2-yl)-pyrido[3,2-d]pyrimidin-4-yl]-(4-trifluoromethyl-phenyl)-amine (cis)]",prevents tolerance to repeated morphine dosing,statistically significantly higher withdrawal thresholds than any other treatment group,statistically significant effect,greatest effect,–,–
"CN1CC[C@]23c4c5ccc(O)c4O[C@H]2[C@@H](O)C=C[C@H]3[C@H]1C5 [morphine, reference compound]",–,–,–,–,not significantly different from oral vehicle and subcutaneous vehicle controls,ineffective in reversing carrageenan-induced thermal hyperalgesia
